Data set [1] has as its system MV4-11 AML xenograft. Briefly: MV4-11 AML xenograft model. Type of data set: in vivo, female athymic nude mice. As to the method: Alvocidib with a cytarabine and daunorubicin regimen were tested in vivo in the MV4-11 AML xenograft model using female athymic nude mice.
ACD (alvocidib+cytarabine+daunorubicin) is an active regimen in MV4-11 AML xenografts. (A) Tumor volume measurements show decreases following the sequential dosing of alvocidib (qdx2), cytarabine (qdx2), and daunorubicin (qdx1). This five day cycle was repeated twice. […] Doses indicated in mg/kg.
Treatment of alvocidib (1.25 mg/kg) yielded 60.0% TGI.

For data set [2], the system named is AML cell lines (OCI-AML3, U937, Molm-13, MV4-11). Briefly: 72-hour viability assay using CellTiter-Glo, single agents in AML cell lines. Type of data set: cell-based. The conditions noted are these: for comparison of IC50s/activity across cell lines: single agent; for pIC50: read-out: single agent IC50 values. As to the method: (A) OCI-AML3, (B) U937, (C) Molm-13, and (D) MV4-11 cells were treated with alvocidib, cytarabine, or daunorubicin, as single agents, in viability assays using CellTiter-Glo according to manufacturer protocol.

For data set [3] the following is noted: statement only; prodrugs described in WO 2016/187316; cited from earlier work.
Data set [4] relates to previously untreated AML. The conditions noted are these: for MRD− (%) / MRD−, number of patients: of all patients evaluable for response.
Method: The starting dose of alvocidib is 20 mg/m^2 as a 30-minute intravenous (IV) bolus followed by 30 mg/m^2 over 4 hours as an IV infusion administered daily on Days 1-3 of induction. The dose of alvocidib administered in the IV infusion is escalated in 10 mg/m^2 increments to 60 mg/m^2 to determine the maximum tolerated dose and to identify any dose limiting toxicity.
Beginning on Day 5, cytarabine is administered as a 100 mg/m^2/day continuous IV infusion for seven consecutive days (Days 5-11) plus daunorubicin administered at a bolus dosage of 60 mg/m^2 IV on Days 5-7.
The key eligibility criteria were: ages 18-65 years, previously untreated AML, ECOG PS 0-2, and no major organ dysfunction. Treatment consisted of increasing dose levels of alvocidib starting at 20 mg/m^2 as a 30-minute IV bolus followed by 30 mg/m^2 over 4 hours on days 1-3, cytarabine 100 mg/m^2/day by continuous IV infusion on days 5-11, followed by (e.g., followed about 30 minutes later by) daunorubicin 60 mg/m^2 IV on days 5-7. Dose escalation portion was assessed by standard 3+3 design. All patients received a day 14 bone marrow biopsy. Reinduction therapy with alvocidib (same dose as induction) days 1-3, followed by cytarabine 100 mg/m^2/day continuous IV on days 5-9, and daunorubicin 45 mg/m^2 IV days 5-6 was recommended in patients with >10% and >5% cellularity and blasts, respectively.
For data set [5], the system named is MCL-1 expression in MV4-11 cells. The experiment in a line: MCL-1 expression during the alvocidib+cytarabine+daunorubicin regimen modeled in vitro. Type of data set: cell-based. The following applies: alvocidib 80 nM, washed out prior to cytarabine (100 nM) addition, daunorubicin 3 nM, in sequence. As for the experimental part: MCL-1 expression during the alvocidib+cytarabine+daunorubicin regimen was modeled in vitro. MV4-11 cells were treated with alvocidib (80 nM), cytarabine (100 nM), or daunorubicin (3 nM), in the sequence shown. Alvocidib (or palbociclib) was washed out prior to cytarabine addition.

[6] abbreviates: 72-hour viability, CellTiter-Glo, one range printed for all three agents over OCI-AML3, U937, Molm-13, MV4-11.
[7] abbreviates: Intermediate- and High-risk, evaluable for MRD status N = 9, alvocidib plus 7+3.
Setting [8] is: Intermediate- and High-risk, evaluable for response N = 10, alvocidib plus 7+3.
Setting [9] is: Intermediate- and High-risk, alvocidib plus 7+3.

pIC50: −log10 of the molar value. Where “and” joins values, the source holds several entries; their conditions need not be identical. Equal values may be shown once. Read-outs that look alike come from different tables or passages of the source.

For the compound `COc1cccc2c1C(=O)c1c(O)c3c(c(O)c1C2=O)C[C@@](O)(C(C)=O)C[C@@H]3O[C@H]1C[C@H](N)[C@H](O)[C@H](C)O1` [daunorubicin], the “tumor growth inhibition (TGI)” value in data set [1] (single agent daunorubicin 0.5 mg/kg) is on record as 21.1%. In addition, in data set [2] (72-hour viability), the “comparison of IC50s/activity across cell lines” value is “differing activities in Molm-13, in comparison to OCI-AML3”. Besides, in data set [2] (72 h), the pIC50 (as a rule, −log10 of the IC50, conventionally taken in molar units) is 6.25 to 8.66.

For `CN1CC[C@H](c2c(OP(=O)(O)O)cc(O)c3c(=O)cc(-c4ccccc4Cl)oc23)[C@H](O)C1` [Structural Formula I], the oral bioavailability result in data set [3] is reported as “orally bioavailable”.

As to `Nc1ccn([C@@H]2O[C@H](CO)[C@@H](O)[C@@H]2O)c(=O)n1` [cytarabine], in data set [1] (single agent cytarabine 60 mg/kg), the “tumor growth inhibition (TGI)” value is on record as 48.5%. Moreover, the pIC50 in data set [2] (setting [6]) is 6.25 to 8.66. Further, the “comparison of IC50s/activity across cell lines” value in data set [2] (72-hour viability) is “differing activities in Molm-13, in comparison to OCI-AML3”.

For the compound `CN1CC[C@H](c2c(O)cc(O)c3c(=O)cc(-c4ccccc4Cl)oc23)[C@H](O)C1` [alvocidib], in data set [4] (All Risks, alvocidib plus 7+3), the “MRD− (%)” value is on record as “(67) %” and the “MRD−, number of patients” value was 10/15. Besides, the “MRD− Evaluable, number of patients” value in data set [4] (All Risks, patients evaluable for MRD status N = 14, alvocidib plus 7+3) is listed as 10/14. The “CR/CRi, number of patients” value in data set [4] (All Risks, patients evaluable for response N = 15, alvocidib plus 7+3, all dose levels) was 12/15 and 12. Besides, in data set [4] (setting [7]), the “MRD− Evaluable (%)” value is “(56) %” and the “MRD− Evaluable, number of patients” value is 5/9. Also, in data set [4] (setting [8]), the “CR/CRi (%)” value is reported as “(70) %” and the “CR/CRi, number of patients” value is 7. In data set [4] (setting [9]), the “MRD− (%)” value is given as “(50) %” and the “MRD−, number of patients” value was 5/10. For the same compound, in data set [4] (human, in vivo, iv), the “MTD, IV bolus part” value is given as 30 mg/m^2 and the “MTD, infusion part” value is reported as 60 mg/m^2. In addition, the “MRD Status” value in data set [4] (per patient, alvocidib dose level 20, 30 mg/m^2 (bolus, infusion) days 1-3, then 7+3) was “Negative”. Further, in data set [4] (per patient, alvocidib dose level 30, 40 mg/m^2 (bolus, infusion) days 1-3, then 7+3), the “MRD Status” value is recorded as “Negative”. Moreover, in data set [4] (per patient, alvocidib dose level 30, 60 mg/m^2 (bolus, infusion) days 1-3, then 7+3, PD = progression of disease), the “Best Response” value is “CRi”. The “tumor growth inhibition (TGI)” value in data set [1] (alvocidib 1.25 mg/kg) is recorded as 60.0%. Besides, in data set [5], the MCL-1 expression entry is “suppresses MCL-1 expression throughout the treatment regimen of cytarabine and daunorubicin”. Besides, the pIC50 in data set [2] (setting [6]) was 6.25 to 8.66.
